This is an account of results in patent US10323022B2, “Pyrrolidinyl urea, pyrrolidinyl thiourea and pyrrolidinyl guanidine compounds as TrkA kinase inhibitors” (Array BioPharma Inc., priority 2011, dated 2019).

In general, IC50 refers to the concentration that gives 50% inhibition. A lower IC50 goes with higher potency.

Structures are written as SMILES.

In the experiment the target is TrkA (Homo sapiens (Human), UniProt P04629). In words: TrkA Omnia Assay. Format: biochemical. Particulars: averaged IC50; 20 nM enzyme, 500 μM ATP, 10 μM peptide substrate. The method in brief: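 Recombinant TrkA (20 nM) preincubated 10 min at ambient temperature with compound, then Omnia Tyr Peptide #4 (10 μM) and ATP (500 μM) added in 25 mM MOPS pH 7.5, 5 mM MgCl2, 0.005% Triton X-100. Fluorescence (ex 360/em 485 nm) followed continuously for 70 min; IC50 from initial rates by 4- or 5-parameter logistic fit.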
TrkA, sequence (P04629 33-796): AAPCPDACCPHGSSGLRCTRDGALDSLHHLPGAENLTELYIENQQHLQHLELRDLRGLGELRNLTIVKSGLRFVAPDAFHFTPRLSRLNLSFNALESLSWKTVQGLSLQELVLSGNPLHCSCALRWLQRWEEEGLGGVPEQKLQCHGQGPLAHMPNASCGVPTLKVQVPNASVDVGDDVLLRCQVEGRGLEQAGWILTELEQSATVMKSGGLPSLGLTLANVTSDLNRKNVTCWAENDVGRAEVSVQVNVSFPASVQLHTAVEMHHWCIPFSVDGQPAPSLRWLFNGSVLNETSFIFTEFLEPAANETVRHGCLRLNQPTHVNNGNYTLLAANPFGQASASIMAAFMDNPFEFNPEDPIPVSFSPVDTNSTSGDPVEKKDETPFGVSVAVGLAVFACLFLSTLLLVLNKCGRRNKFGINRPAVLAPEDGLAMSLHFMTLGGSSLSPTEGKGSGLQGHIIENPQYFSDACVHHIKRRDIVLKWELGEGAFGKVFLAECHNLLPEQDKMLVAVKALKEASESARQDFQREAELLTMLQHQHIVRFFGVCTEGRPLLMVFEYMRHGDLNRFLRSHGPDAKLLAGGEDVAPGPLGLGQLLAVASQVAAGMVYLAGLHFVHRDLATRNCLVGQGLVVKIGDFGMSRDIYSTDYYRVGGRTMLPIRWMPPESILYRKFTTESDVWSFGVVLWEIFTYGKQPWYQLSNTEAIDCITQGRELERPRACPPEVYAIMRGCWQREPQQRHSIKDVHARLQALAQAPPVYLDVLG
`COCCN1C[C@@H](NC(=O)Nc2c(C)c(-c3cnn(C)c3)nn2-c2cccc(F)c2)[C@H](c2ccc(F)c(F)c2)C1` [Example 313, 1-((3S,4R)-4-(3,4-difluorophenyl)-1-(2-methoxyethyl)pyrrolidin-3-yl)-3-(1-(3-fluorophenyl)-1′,4-dimethyl-1H,1′H-[3,4′-bipyrazol]-5-yl)urea]: the half-maximal inhibitory concentration (IC50) was below 100 nM. Next, `COCCN1C[C@@H](NC(=O)Nc2c(C)c(OCC(C)(C)O)nn2-c2ccccc2)[C@H](c2ccc(F)c(F)c2)C1` [Example 145, 1-((3S,4R)-4-(3,4-difluorophenyl)-1-(2-methoxyethyl)pyrrolidin-3-yl)-3-(3-(2-hydroxy-2-methylpropoxy)-4-methyl-1-phenyl-1H-pyrazol-5-yl)urea]: below 100 nM; `CCn1nc(C)c(NC(=O)N[C@@H]2CN(CCOC)C[C@H]2c2ccc(F)c(F)c2)c1-c1ccccc1` [Example 645, 1-((3S,4R)-4-(3,4-difluorophenyl)-1-(2-methoxyethyl)pyrrolidin-3-yl)-3-(1-ethyl-3-methyl-5-phenyl-1H-pyrazol-4-yl)urea]: below 100 nM; `COCCN1C[C@@H](NC(=O)Nc2c(C)c(-c3ccccc3)nn2-c2ccccc2)[C@H](c2ccc(F)c(F)c2)C1` [Example 328, 1-((3S,4R)-4-(3,4-difluorophenyl)-1-(2-methoxyethyl)pyrrolidin-3-yl)-3-(4-methyl-1,3-diphenyl-1H-pyrazol-5-yl)urea]: below 100 nM. Compound `COCCN1C[C@@H](NC(=O)Nc2c(C)c(OC[C@@H](O)CO)nn2-c2ccccc2)[C@H](c2cc(F)cc(F)c2)C1` [Example 557, 1-((3S,4R)-4-(3,5-difluorophenyl)-1-(2-methoxyethyl)pyrrolidin-3-yl)-3-(3-((S)-2,3-dihydroxvpropoxy)-4-methyl-1-phenyl-1H-pyrazol-5-yl)urea] displayed an IC50 below 100 nM. Next, `COCCN1C[C@@H](NC(=O)Nc2c3c(nn2-c2ccncc2)CCC3)[C@H](c2ccccc2)C1` [Example 151, 1-((3S,4R)-1-(2-methoxyethyl)-4-phenylpyrrolidin-3-yl)-3-(2-(pyridin-4-yl)-2,4,5,6-tetrahydrocyclopenta[c]pyrazol-3-yl)urea]: below 100 nM; `COCCN1C[C@@H](NC(=O)Nc2c(Cl)c(C3CCN(C(=O)OC(C)(C)C)CC3)nn2-c2ccccc2)[C@H](c2ccc(F)c(F)c2)C1` [Example 569, Tert-butyl 4-(4-chloro-5-(3-((3S,4R)-4-(3,4-difluorophenyl)-1-(2-methoxyethyl)pyrrolidin-3-yl)ureido)-1-phenyl-1H-pyrazol-3-yl)piperidine-1-carboxylate]: below 100 nM. Consider `COCCN1C[C@@H](NC(=O)Nc2c(C)c(C)nn2-c2ccccc2)[C@H](c2ccc(F)c(F)c2)C1` [Example 92, 1-((3S,4R)-4-(3,4-difluoro-phenyl)-1-(2-methoxyethyl)pyrrolidin-3-yl)-3-(3,4-dimethyl-1-phenyl-1H-pyrazol-5-yl)urea], for which the IC50 was below 100 nM.

`CCOc1nn(-c2ccccc2)c(NC(=O)N[C@@H]2CN(CCOC)C[C@H]2c2ccc(F)c(F)c2)c1N` [Example 549, 1-(4-amino-3-ethoxy-1-phenyl-1H-pyrazol-5-yl)-3-((3S,4R)-4-(3,4-difluorophenyl)-1-(2-methoxyethyl)pyrrolidin-3-yl)urea] gave an IC50 below 100 nM. Then `COCCN1C[C@@H](NC(=O)Nc2c(C)c(-c3ccccc3)nn2C)[C@H](c2ccccc2)C1` [Example 54, 1-(1,4-dimethyl-3-phenyl-1H-pyrazol-5-yl)-3-((3S,4R)-1-(2-methoxy-ethyl)-4-phenylpyrrolidin-3-yl)urea], with 1000 to 10000 nM; and `COCCN1C[C@@H](NC(=O)Nc2c(Cl)c(-c3cnn(C)c3)nn2-c2ccccc2)[C@H](c2ccccc2)C1` [Example 425, 1-(4-chloro-1′-methyl-1-phenyl-1H,1′H-[3,4′-bipyrazol]-5-yl)-3-((3S,4R)-4-phenyl-1-(2-methoxyethyl)pyrrolidin-3-yl)urea], with below 100 nM. Then `COCCN1C[C@@H](NC(=O)Nc2c(C)c(OC)nn2-c2ccccc2)[C@H](c2ccc(F)c(F)c2)C1` [Example 140, 1-((3S,4R)-4-(3,4-difluorophenyl)-1-(2-methoxyethyl)pyrrolidin-3-yl)-3-(3-methoxy-4-methyl-1-phenyl-1H-pyrazol-5-yl)urea], with below 100 nM; and `COCCN1C[C@@H](NC(=O)Nc2c(C)c(CCO)nn2-c2ccccc2)[C@H](c2ccc(F)cc2)C1` [Example 287, 1-((3S,4R)-4-(4-fluorophenyl)-1-(2-methoxyethyl)pyrrolidin-3-yl)-3-(3-(2-hydroxyethyl)-4-methyl-1-phenyl-1H-pyrazol-5-yl)urea], with below 100 nM. Next, `COCCN1C[C@@H](NC(=O)Nc2cc(C(C)(C)C)nn2-c2cccnc2)[C@H](c2ccccc2)C1` (relative stereo) [Example 7, 1-(3-tert-butyl-1-(pyridin-3-yl)-1H-pyrazol-5-yl)-3-(trans-1-(2-methoxyethyl)-4-phenylpyrrolidin-3-yl) urea]: 1000 to 10000 nM; `COCCN1C[C@@H](NC(=O)Nc2c(C)c(-c3ccn(C)n3)nn2-c2ccccc2)[C@H](c2ccc(F)c(F)c2)C1` [Example 491, 1-((3S,4R)-4-(3,4-difluorophenyl)-1-(2-methoxyethyl)pyrrolidin-3-yl)-3-(1′,4-dimethyl-1-phenyl-1H,1′H-[3,3′-bipyrazol]-5-yl)urea]: below 100 nM; `COCCN1C[C@@H](NC(=O)Nc2c(Br)c(-c3ccccc3)nn2-c2ccccc2)[C@H](c2cc(F)cc(F)c2)C1` [Example 427, 1-(4-bromo-1,3-diphenyl-1H-pyrazol-5-yl)-3-((3S,4R)-4-(3,5-difluorophenyl)-1-(2-methoxyethyl)pyrrolidin-3-yl)urea]: below 100 nM. As to `COCCN1C[C@@H](NC(=O)Nc2c3c(nn2-c2ccccc2)CS(=O)(=O)C3)[C@H](c2ccc(F)c(F)c2)C1` [Example 171, 1-((3S,4R)-4-(3,4-difluorophenyl)-1-(2-methoxyethyl)pyrrolidin-3-yl)-3-(5,5-dioxido-2-phenyl-4,6-dihydro-2H-thieno[3,4-c]pyrazol-3-yl)urea], the half-maximal inhibitory concentration (IC50) is below 100 nM. The compound `COCCN1C[C@@H](NC(=O)Nc2cc(C)nn2-c2ccccc2)[C@H](c2cc(F)cc(F)c2)C1` [Example 86, 1-((3S,4R)-4-(3,5-difluoro-phenyl)-1-(2-methoxyethyl)pyrrolidin-3-yl)-3-(3-methyl-1-phenyl-1H-pyrazol-5-yl)urea] registered an IC50 below 100 nM. Then `COCCN1C[C@@H](NC(=O)Nc2c(-c3ccccc3)nn(C)c2C(F)(F)F)[C@H](c2ccc(F)c(F)c2)C1` [Example 647, 1-((3S,4R)-4-(3,4-difluorophenyl)-1-(2-methoxyethyl)pyrrolidin-3-yl)-3-(1-methyl-3-phenyl-5-(trifluoromethyl)-1H-pyrazol-4-yl)urea], with below 100 nM. The compound `CCOc1nn(-c2ccccc2)c(NC(=O)N[C@@H]2CN(CCOC)C[C@H]2c2ccccc2)c1C` [Example 139] yielded a concentration for half-maximal inhibition (IC50) below 100 nM.

As to `COCCN1C[C@@H](NC(=O)Nc2c(C)c(-c3ccn(C)c(=O)c3)nn2-c2ccccc2)[C@H](c2ccc(F)cc2)C1` [Example 532, 1-((3S,4R)-4-(4-fluorophenyl)-1-(2-methoxyethyl)pyrrolidin-3-yl)-3-(4-methyl-3-(1-methyl-2-oxo-1,2-dihydropyridin-4-yl)-1-phenyl-1H-pyrazol-5-yl)urea], the IC50 was below 100 nM.
